Source: article PMC8296622, “Crystal structure and functional characterization of an oligosaccharide dehydrogenase from Pycnoporus cinnabarinus provides insights into fungal breakdown of lignocellulose” (Biotechnology for Biofuels, 2021)

Columns and labels:
[1] = target: T1, ODH (oligosaccharide dehydrogenase) (Trametes cinnabarina, UniProt A0A060SC37); assay: X-ray crystallography of soaked crystals (data not shown); settings: bound at three external surface sugar-binding sites, not in the active site
T1 construct: gene BN946_scf184803.g17
T1 sequence (A0A060SC37 entry or part of it): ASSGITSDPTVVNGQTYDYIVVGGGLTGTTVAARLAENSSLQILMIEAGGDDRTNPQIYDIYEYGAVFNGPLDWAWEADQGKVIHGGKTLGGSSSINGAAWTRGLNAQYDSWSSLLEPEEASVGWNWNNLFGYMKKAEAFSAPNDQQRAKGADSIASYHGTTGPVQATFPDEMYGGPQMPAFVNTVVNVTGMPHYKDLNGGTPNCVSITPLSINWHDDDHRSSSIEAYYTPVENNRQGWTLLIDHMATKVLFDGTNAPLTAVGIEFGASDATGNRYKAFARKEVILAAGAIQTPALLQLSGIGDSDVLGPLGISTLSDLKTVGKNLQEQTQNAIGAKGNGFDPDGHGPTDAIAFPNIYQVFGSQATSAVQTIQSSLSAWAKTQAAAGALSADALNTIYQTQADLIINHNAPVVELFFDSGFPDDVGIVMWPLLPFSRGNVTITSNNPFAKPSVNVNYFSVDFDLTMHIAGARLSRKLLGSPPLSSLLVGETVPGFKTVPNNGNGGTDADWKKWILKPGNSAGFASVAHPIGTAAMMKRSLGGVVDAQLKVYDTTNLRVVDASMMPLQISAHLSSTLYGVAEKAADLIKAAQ

[2] = target: T1, ODH (oligosaccharide dehydrogenase); assay: X-ray crystallography; assay type: binding; settings: ligand-free (sugar-free) enzyme, 1.6 Å; non-covalently bound, oxidized FAD

| Structure (SMILES) | X-ray crystallography of soaked crystals (data not shown) [1] | X-ray crystallography [2] |
| --- | --- | --- |
| OC[C@H]1O[C@@H](O[C@H]2[C@H](O)[C@@H](O)C(O)O[C@@H]2CO)[C@H](O)[C@@H](O)[C@@H]1O (mixture of isomers) [G4G, cellobiose] | the ligand was clearly bound to (and modeled at) the three SBSs (data not shown) |  |
| Cc1cc2nc3c(=O)[nH]c(=O)nc-3n(C[C@H](O)[C@H](O)[C@H](O)COP(=O)(O)OP(=O)(O)OC[C@H]3O[C@@H](n4cnc5c(N)ncnc54)[C@H](O)[C@@H]3O)c2cc1C [FAD] |  | The FAD molecule is non-covalently bound to the protein |
